Experiments:
[1] = Body weight change of MOLM-13 tumor-bearing NOD-SCID mice under drug administration; type: in vivo, mouse; details: oral
Experimental: (§1) Human acute myeloid leukemia cell line MOLM-13 cells having a FLT3-ITD mutation and wild-type TP53 were suspended to 5×10^7 cells/mL using phosphate-buffered saline. 0.1 mL of the prepared cell suspension was subcutaneously transplanted to each NOD-SCID mouse (male, 5 to 7 weeks old). On 6 days after the tumor inoculation, after confirmation that the average tumor volume exceeded 100 mm^3, the mice were randomized (N=6/group) on the basis of their tumor volume values. […] The administration was performed once a day for 5 consecutive days (6 to 10 days after the tumor inoculation) from the date of randomization (6 days after the tumor inoculation), and after a 2-day drug holiday, performed once a day for 4 consecutive days (13 to 16 days after the tumor inoculation). The length (mm) and width (mm) of tumor were measured over time using an electronic digital caliper. Tumor growth inhibition % (TGI %) on the date of assessment (17 days after the tumor inoculation) calculated according to calculation formula (4) shown below was used in evaluation. Also, the body weights were measured over time using an automatic balance for small animals, and body weight change % was calculated according to calculation formula (5) shown below to assess the influence of drug administration on the body weights. In addition, the results of the last body weight measurement were used in dose calculation. TGI (%)=(1−A/B)×100 (4)
(§2) *: The tumor volume was calculated according to ½×[Major axis of tumor]×[Minor axis of tumor]×[Minor axis of tumor]. Body weight change (%)=Average body weight change % of the individuals Body weight change % of each individual=[…] (5)
BWn: Body weight on day n
BWs: Body weight on the start day of administration

[2] = tested on: human acute myeloid leukemia cell line MOLM-13 cells having a FLT3-ITD mutation and wild-type TP53; assay: In vivo effect of combined use on subcutaneously transplanted MOLM-13 tumors in NOD-SCID mice; details: oral; for TGI (%): 17 days after tumor inoculation
Experimental: as §1
A: Average tumor volume of the compound-administered group on the date of assessment (*)
B: Average tumor volume of the untreated control group on the date of assessment (*)
as §2

[3] = DS-3032b 25 mg/kg, day 6 after tumor inoculation
[4] = DS-3032b 25 mg/kg, day 8 after tumor inoculation
[5] = DS-3032b 25 mg/kg, day 10 after tumor inoculation
[6] = DS-3032b 25 mg/kg, day 13 after tumor inoculation
[7] = DS-3032b 25 mg/kg, day 15 after tumor inoculation
[8] = DS-3032b 25 mg/kg, day 17 after tumor inoculation
[9] = DS-3032b 50 mg/kg, day 6 after tumor inoculation
[10] = DS-3032b 50 mg/kg, day 8 after tumor inoculation
[11] = DS-3032b 50 mg/kg, day 10 after tumor inoculation
[12] = DS-3032b 50 mg/kg, day 13 after tumor inoculation
[13] = DS-3032b 50 mg/kg, day 15 after tumor inoculation
[14] = DS-3032b 50 mg/kg, day 17 after tumor inoculation

In the case of `CC1(C)CCC2(CC1)N[C@@H](C(=O)N[C@@H]1CC[C@@H](C(N)=O)OC1)[C@H](c1ccnc(Cl)c1F)[C@]21C(=O)Nc2cc(Cl)ccc21.Cc1ccc(S(=O)(=O)O)cc1` [Compound A, (3′R,4′S,5′R)—N-[(3R,6S)-6-carbamoyltetrahydro-2H-pyran-3-yl]-6″-chloro-4′-(2-chloro-3-fluoropyridin-4-yl)-4,4-dimethyl-2″-oxo-1″,2″-dihydrodispiro[cyclohexane-1,2′-pyrrolidine-3′,3″-indole]-5′-carboxamide tosylate], the “Body weight change (%), average” value [1, 3] is reported as 0.0%, the “Body weight change (%), average” value [1, 4] is reported as 2.1% and the “Body weight change (%), average” value [1, 5] is reported as 3.1%. The “Body weight change (%), average” value [1, 6] was 6.4%, the “Body weight change (%), average” value [1, 7] was 8.0% and the “Body weight change (%), average” value [1, 8] was 10.6%. For the same compound, the “Body weight change (%), average” value [1, 9] was 0.0%, the “Body weight change (%), average” value [1, 10] was 1.5% and the “Body weight change (%), average” value [1, 11] was 2.7%. For the same compound, the “Body weight change (%), average” value [1, 12] was 5.5%, the “Body weight change (%), average” value [1, 13] was 6.8% and the “Body weight change (%), average” value [1, 14] was 5.8%. The “TGI (%)” value ([2]; Compound A 25 mg/kg) was 38%, the “TGI (%)” value ([2]; Compound A 50 mg/kg) was 82% and the “Estimated tumor volume (mm^3), average” value [2, 3] was 169 mm^3. The “Estimated tumor volume (mm^3), average” value [2, 4] was 266 mm^3, the “Estimated tumor volume (mm^3), average” value [2, 5] was 425 mm^3 and the “Estimated tumor volume (mm^3), average” value [2, 6] was 812 mm^3. The “Estimated tumor volume (mm^3), average” value [2, 7] was 983 mm^3, the “Estimated tumor volume (mm^3), average” value [2, 8] was 1661 mm^3 and the “Estimated tumor volume (mm^3), average” value [2, 9] was 162 mm^3. For the same compound, the “Estimated tumor volume (mm^3), average” value [2, 10] was 195 mm^3, the “Estimated tumor volume (mm^3), average” value [2, 11] was 210 mm^3 and the “Estimated tumor volume (mm^3), average” value [2, 12] was 325 mm^3. For the same compound, the “Estimated tumor volume (mm^3), average” value [2, 13] was 375 mm^3 and the “Estimated tumor volume (mm^3), average” value [2, 14] was 467 mm^3.

With `CC(C)(C)c1cc(NC(=O)Nc2ccc(-c3cn4c(n3)sc3cc(OCCN5CCOCC5)ccc34)cc2)no1` [Quizartinib, N-(5-tert-butyl-isoxazol-3-yl)-N′-{4-[7-(2-morpholin-4-yl-ethoxy)imidazo[2,1-b][1,3]benzothiazol-2-yl]phenyl}urea, reference compound] the “Body weight change (%), average” value ([1]; Quizartinib 0.5 mg/kg, day 6 after tumor inoculation) was 0.0%, the “Body weight change (%), average” value ([1]; Quizartinib 0.5 mg/kg, day 8 after tumor inoculation) was 4.2% and the “Body weight change (%), average” value ([1]; Quizartinib 0.5 mg/kg, day 10 after tumor inoculation) was 4.2%. The “Body weight change (%), average” value ([1]; Quizartinib 0.5 mg/kg, day 13 after tumor inoculation) was 8.5%, the “Body weight change (%), average” value ([1]; Quizartinib 0.5 mg/kg, day 15 after tumor inoculation) was 9.6% and the “Body weight change (%), average” value ([1]; Quizartinib 0.5 mg/kg, day 17 after tumor inoculation) was 10.7%. The “Body weight change (%), average” value ([1]; Quizartinib 1 mg/kg, day 6 after tumor inoculation) was 0.0%, the “Body weight change (%), average” value ([1]; Quizartinib 1 mg/kg, day 8 after tumor inoculation) was 0.2% and the “Body weight change (%), average” value ([1]; Quizartinib 1 mg/kg, day 10 after tumor inoculation) was 1.8%. The “Body weight change (%), average” value ([1]; Quizartinib 1 mg/kg, day 13 after tumor inoculation) was 4.6%, the “Body weight change (%), average” value ([1]; Quizartinib 1 mg/kg, day 15 after tumor inoculation) was 5.1% and the “Body weight change (%), average” value ([1]; Quizartinib 1 mg/kg, day 17 after tumor inoculation) was 5.8%.
